Structures are written as SMILES. Several values for one entry are separate records, joined by “and”; a condition that tells them apart may be missing. Equal values may be shown once.

The first assay deals with cultured human mast cells (CHMC). In words: CHMC low cell density ionomycin activation: tryptase assay. The format is cell-based. As to conditions: low cell density; read-out: CHMC Ionomycin Tryptase.
`CCOC(=O)CCn1ncc2cc(Nc3ncc(F)c(Nc4ccc(OC)nc4OC)n3)ccc21` [Compound R935381]: the IC50 was greater than 10 µM.
In the case of `CNC(=O)CCn1ncc2cc(Nc3ncc(F)c(Nc4ccc(F)c(F)c4)n3)ccc21` [Compound R935385], the IC50 was greater than 10 µM.
Still for that read-out and setting: the figure for `CNC(=O)COc1cccc(Nc2ncc(F)c(Nc3ccc(OC(F)(F)F)c(C(=O)N4CCOCC4)c3)n2)c1` [Compound R950411] is greater than 10 µM.
Consider `CNC(=O)COc1cccc(Nc2ncc(F)c(NC3CC3)n2)c1` [Compound R945372], for which the IC50 was greater than 10 µM.
For `CNC(=O)COc1cccc(Nc2ncc(F)c(Nc3ccc(OC(F)(F)F)c(C(=O)NCCN)c3)n2)c1` [Compound R950406], the IC50 is greater than 10 µM.

In the next assay the test system is bone marrow derived mast cells (BMMC). In words: BMMC high cell density IgE activation: hexosaminidase. It counts as cell-based, mouse. As to conditions: high cell density; read-out: BMMC anti-IgE Hexos. On the procedure:
After sensitizing, cells are counted, pelleted (1000 rpm, 5-10 minutes), and resuspended at 1-3×10^6 cells/ml in MT buffer. Add 100 ul of cell suspension to each well and 100 ul of compound dilutions. The final vehicle concentration is 0.5% DMSO. Incubate at 37° C. (5% CO2) for 1 hour. After 1 hour of compound treatment, stimulate cells with 6× stimulus (60 ng/ml DNP-BSA). Mix wells with the cells and allow plates to incubate at 37° C. (5% CO2) for one hour. After 1 hour incubation, pellet cells (10 minutes, 1000 RPM) and collect 200 ul per well of the supernatant, being careful not to disturb pellet, and transfer to a clean tube or 96-well plate. Place the supernatant plate on ice. During the 4-5 hour step (see next) perform the hexosiminidase assay. Resuspend cell pellet in 240 ul WEI-conditioned media containing 0.5% DMSO and corresponding concentration of compound. Incubate BMMC cells for 4-5 hours at 37° C. (5% CO2). After incubation, pellet cells (1000 RPM, 10 minutes) and collect 225 ul per well and place in −80° C. until ready to perform ELISAS. ELISAS are performed on appropriately diluted samples (determined empirically for each donor cell population so that the sample measurement falls within the standard curve) following the supplier's instructions.
Add 50 uL of BMMC cell supernatant (see above) to the hexoseaminidase substrate, place at 37° C. for 30 minutes and read the plate at 5, 10, 15, and 30 minutes on a spectrophotometer.
For `CCOC(=O)CCn1ncc2cc(Nc3ncc(F)c(Nc4ccc(OC)nc4OC)n3)ccc21` [Compound R935381], the IC50 was found to be 7.74 µM.
The same measure, in the same setting: next, `CNC(=O)CCn1ncc2cc(Nc3ncc(F)c(Nc4ccc(F)c(F)c4)n3)ccc21` [Compound R935385]: 0.217 µM; `CNC(=O)COc1cccc(Nc2ncc(F)c(Nc3ccc(OC(F)(F)F)c(C(=O)N4CCOCC4)c3)n2)c1` [Compound R950411]: 4 µM.
On the same count and under the same terms, next, `CNC(=O)COc1cccc(Nc2ncc(F)c(NC3CC3)n2)c1` [Compound R945372]: 0.923 µM.
On the same count and under the same terms, the figure for `CNC(=O)COc1cccc(Nc2ncc(F)c(Nc3ccc(OC(F)(F)F)c(C(=O)NCCN)c3)n2)c1` [Compound R950406] is greater than 10 µM.

For another assay, the system named is IgE-induced degranulation of tissue mast cells. In words: Mouse model of passive cutaneous anaphylaxis (PCA). It counts as in vivo. As to conditions: positive controls. On the procedure: This model provides a direct measure of IgE-induced degranulation of tissue mast cells. In this model, IgE primed animals are exposed to an allergen challenge, and the change in permeability of dermal vasculature that results from histamine release from mast cells is measured by change in the amount of dye leakage into surrounding tissue. Inhibition of mediator release by compounds that modulate mast cell degranulation is easily measured by extracting the dye from the tissue.
In the PCA assay mice are passively sensitized by intradermal injection with anti-dinitrophenol (DNP) IgE antibodies (Day −1). At predetermined times animals are treated with the test agent (Day 0). The modulatory effect of the agent on cutaneous mast cell degranulation is measured following intravenous injection of DNP conjugated to human serum albumin (HSA-DNP), together with Evans blue dye. The resulting cross-linking of the IgE receptor and subsequent mast cell degranulation-induced increase in vascular permeability is determined by measuring the amount of dye extravasation into the tissue. Dye is extracted from the tissue by formamide, and the absorbance of this extract is read at 620 nm.
`CN(C)CCOC(c1ccccc1)c1ccccc1` [diphenhydramine, reference compound]: the PCA response entry was “inhibit the PCA response”.

The target of another assay is T1, Syk kinase (Homo sapiens, UniProt P43405).
T1 construct: purchased Upstate, Lake Placid NY
Put plainly: Syk kinase biochemical fluorescence polarization assay. The settings on record: isolated Syk kinase, fluorescence polarization, 4 uM ATP. Background: Polarisation of emitted light reports the rotation of a fluorescent probe.
The compound `COc1cc(Nc2ncc(F)c(Nc3ccc4c(c3)NC(=O)[C@H](C)O4)n2)cc(OC)c1` [Compound R908953] registered an IC50 of 0.017 µM.

Test system in another assay: not listed separately
In words: Mouse Reverse Passive Arthus reaction (RPA reaction). It counts as in vivo, C57BL/6 mice. As to conditions: oral, 200 mg/kg, 60 minutes prior to challenge. On the procedure: In this model system, test compounds are administered at several timepoints prior to administration of Abs and Ags. A solution of rabbit anti-OVA IgG (50 μg in 25 μl/mouse) is injected intradermally, and immediately following is an intravenous injection of chicken egg albumin (20 mg/kg of body weight) in a solution containing 1% Evans blue dye. The degree of edema and hemorrhage is measured in the dorsal skin of C57BL/6 mice using the Evan's Blue dye as an indicator of local tissue damage. Purified polyclonal rabbit IgG is used as a control.
Pretreatment time, in which the test compounds are administered prior to Ab/Ag challenge, depends on the pharmacokinetic (PK) properties of each individual compound. Four hours after induction of Arthus reaction, mice are euthanized, and tissues are harvested for assessment of edema.
As for `CNC(=O)COc1cccc(Nc2ncc(F)c(Nc3ccc4c(c3)NC(=O)C(C)(C)O4)n2)c1` [Compound R940323], the “inhibition of edema formation” value is 32.4%.

Still in this assay, the particulars now being: oral, 200 mg/kg, pretreatment time 0.5 hrs.
For the compound `CNC(=O)COc1cccc(Nc2ncc(F)c(Nc3ccc4c(c3)NC(=O)C(C)(C)O4)n2)c1` [Compound R940323], the “% inhibition to vehicle control Edema Size ± SEM” value is 5.5 ± 9.3%.

Still in this assay, the particulars now being: oral, 200 mg/kg, pretreatment time 1 hrs.
For the compound `CNC(=O)COc1cccc(Nc2ncc(F)c(Nc3ccc4c(c3)NC(=O)C(C)(C)O4)n2)c1` [Compound R940323], the “% inhibition to vehicle control Edema Size ± SEM” value was 32.4 ± 13.0% and 32.4%.

Still in this assay, the particulars now being: oral, 200 mg/kg, pretreatment time 2 hrs.
Turning to `CNC(=O)COc1cccc(Nc2ncc(F)c(Nc3ccc4c(c3)NC(=O)C(C)(C)O4)n2)c1` [Compound R940323], the “% inhibition to vehicle control Edema Size ± SEM” value was 26.9 ± 11.2%.

The next assay concerns Human Jurkat T-cells (clone N). Put plainly: Jurkat T-cell activation (anti-TCR, CD69 upregulation).
Settings: not given
The format is cell-based. The method in brief: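 Jurkat cells in RPMI + 5% FBS preincubated with compound 1 h at 37 °C, then stimulated with anti-TCR C305 at 500 ng/ml for 20 h. CD69 surface expression stained with anti-CD69-APC and read by flow cytometry; IC50 versus solvent-only control.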
The compound `CNC(=O)COc1cccc(Nc2ncc(F)c(Nc3ccc4c(c3)NC(=O)C(C)(C)O4)n2)c1` [Compound R940323] gave an IC50 of 0.557 µM.

The same assay, now with this note: Homo sapiens, Jurkat.
Compound `CCOc1ccc(Nc2nc(Nc3ccc4c(c3)OCCO4)ncc2F)cc1` [Compound R926213] yielded an IC50 of 8.86 µM.

In the next assay the test system is Primary human B-cells. Put plainly: Primary B-cell activation (α-IgM, CD69 upregulation). The format is cell-based. As to conditions: Homo sapiens, B-cell, read-out: 1° B-Cell CD69 IC50. On the procedure:
Primary human B-cells were isolated from buffy coat, the white cell layer that forms between the red cells and the […] when anti-coagulated blood is centrifuged, or from fresh blood using CD19-Dynal® beads and a FACS. Buffy coat was obtained from the Stanford Medical School Blood Centre, prepared on the same day by the blood bank, stored and transported cold (with ice). The buffy coat (approx 35 mL) was placed in a 500 mL conical sterile centrifuge pot and cooled on ice, then diluted with cold PBS containing 0.2% BSA (Sigma: A7638) and sodium citrate (0.1%, Sigma: S-5570) (P—B—C) to a total volume of 200 mL and mixed gently. Fresh blood was collected from donors in 10 mL vacutainers containing heparin (1 vacutainer collects approximately 8.5 mL blood). The blood was cooled on ice, transferred into 50 mL falcon tubes (20 mL/tube) or a 500 mL conical sterile centrifuge pot, and diluted with an equal volume P—B—C.
25 mL diluted blood or buffy coat was layered onto 15 mL cold ficoll and placed back on ice. The ficoll layered blood was centrifuged (Beckman GS-6R) for 45 minutes at 2000 rpm, 4° C. to separate the Peripheral Blood Mononuclear Cells (PBMC) from the Red Blood Cells (RBC) and granulocytes. The top aqueous layer was then aspirated until 1 inch above the PBMC layer. The PBMCs were transferred from every 2 ficoll tubes into one clean 50 mL falcon tube (=approx 10 mL/tube). The transferred PBMCs were diluted 5× with icecold PBS with 0.2% BSA (P—B) and centrifuged for 20 min at 1400 rpm and 4° C. The supernatant (this may be cloudy) was then aspirated and the PBMCs resuspended into 25 mL P—B and the cells counted (using a 1:5 dilution) and kept on ice.
The cells were then positively selected using anti-CD 19 antibody coupled to magnetic beads (Dynal®) as per manufacturer's instructions. The approximate required amount of CD19-Dynal® beads (CD19-coated dyna beads M-450 (pabB), Dynal®) was calculated by estimating the number of B-cells as 5% of PBMCs counted and adding approximately10 beads per cell from the bead stock (4×10^8 beads/mL). The CD19-Dynal® beads were washed 2× in P—B in a 5 mL tube using the Dynal® magnet, then added into the suspended PBMCs. This mixture was then passed through the Dynal® magnet and washed several times to separate the bead-bound cells.
After separation, the beads and antibody were removed using Dynal® CD19-DETACHaBEAD® for 45 min at 30° C. Yield is typically 2×10^7 B-cells per buffy coat. B-cells were washed and resuspended as 1E6 cells/mL in RPMI1640+10% FBS+Penicillin/[…]+1 ng/mL IFNα8. Cells were rested overnight at 37° C. and 5% CO2.
The following day, cells were washed and resuspended in RPMI+2.5% FBS to 1×10^6 cells/mL. Cells were then aliquoted into a V-bottom 96-well plate (Corning) at 65 uL cells per well. By robot, 65 uL of a 2× compound was added to the cells with final concentration of DMSO at 0.2%, and incubated for 1 hr at 37° C. Cells were then stimulated with 20 uL 7.5× α-IgM from Jackson laboratories (final 5 ug/mL) for 24 hrs. At day 3, the cells were spun down and stained for CD69 and analyzed by FACS gated on the live cells (by light scatter).
Varied concentrations of compound were compared to solvent only to determine the inhibition of B-cell activation IC50 of each compound.
As for `CCOc1ccc(Nc2nc(Nc3ccc4c(c3)OCCO4)ncc2F)cc1` [Compound R926213], the IC50 came to 44 µM.

The assay is the same for the next values; noted with them: read-out: 1° B-Cell CD69 IC50.
Regarding `CNC(=O)COc1cccc(Nc2ncc(F)c(Nc3ccc4c(c3)NC(=O)C(C)(C)O4)n2)c1` [Compound R940323], the IC50 was 0.11 µM.
Still for that read-out and setting: next, `COc1cc(Nc2ncc(F)c(Nc3ccc4c(c3)NC(=O)[C@H](C)O4)n2)cc(OC)c1` [Compound R908953]: 1.98 µM.
